# Test results as given in ChEMBL document CHEMBL4382290, “Tetrahydroisoquinoline CXCR4 Antagonists Adopt a Hybrid Binding Mode within the Peptide Subpocket of the CXCR4 Receptor” (ACS Med Chem Lett, 2019).
# System: Human immunodeficiency virus 1
# Experiment: Antiviral activity against CXCR4 tropic HIV1 3B infected in human MAGI-CCR5/CXCR4 cells measured after 2 to 6 days by beta-galactosidase reporter gene assay
# Type: functional, organism-based
# Conditions: Human immunodeficiency virus 1, 3B
row,SMILES,IC50 [µM]
1,NCCCCN(C[C@@H]1Cc2ccccc2CN1)[C@H]1CCCc2cccnc21,1.4
2,NCCCCN(C[C@@H]1NCCc2ccccc21)[C@H]1CCCc2cccnc21,30
3,NCCCCN(C[C@@H]1CCc2ccccc2N1)[C@H]1CCCc2cccnc21,30
4,Cc1ccc(-c2ccc3c(c2)C=C(C(=O)Nc2ccc(C[N+](C)(C)C4CCOCC4)cc2)CCC3)cc1,> 10
5,NCCN(C[C@H]1Cc2ccccc2CN1)[C@H]1CCCc2cccnc21,6.2
6,NCCCCN(C[C@H]1Cc2ccccc2CN1)[C@H]1CCCc2ccccc21,1.5

# The next molecules have a lower IC50 than those just listed; values first:
row,IC50 [µM],SMILES
1,0.45,NCCCCN(C[C@H]1NCCc2ccccc21)[C@H]1CCCc2cccnc21
2,0.25,NCCCCN(C[C@H]1CCc2ccccc2N1)[C@H]1CCCc2cccnc21
3,0.005,NCCCCN(C[C@H]1Cc2ccccc2CN1)[C@H]1CCCc2cccnc21
4,1.12,NCCCCN(C[C@H]1CCCCN1)[C@H]1CCCc2cccnc21
5,0.38,NCCCN(C[C@H]1Cc2ccccc2CN1)[C@H]1CCCc2cccnc21
6,0.17,NCCCCCN(C[C@H]1Cc2ccccc2CN1)[C@H]1CCCc2cccnc21
